Drawing on ChEMBL document CHEMBL1155557, “New quinoline alkaloids from Ruta chalepensis” (2000), this text covers MIC for five compounds.

Holding throughout (assay type): functional
The subject of test [1] is Mycolicibacterium smegmatis. Put plainly: Antibacterial activity against Mycobacterium smegmatis by microtiter plate assay.
The subject of the next test is Bacillus subtilis. The test is described as follows: Antibacterial activity against Bacillus subtilis by microtiter plate assay.
The next test relates to Staphylococcus aureus. The test is described as follows: Antibacterial activity against Staphylococcus aureus by microtiter plate assay.
The test system of another test is Candida albicans. The test is described as follows: […] activity against Candida albicans by microtiter plate assay.

Structures are written as SMILES. Values after ≈ are worked out from the molar mass of the structure shown.

Consider `COc1c2ccccc2nc2occc12` [DICTAMNINE], for which the MIC (in test [1]; against Bacillus subtilis) was 100 µg/mL (≈ 502 µM) in each case.

With `Cn1c2ccccc2c(=O)c2c(O)cc3c(c21)CC(C(C)(O)CCl)O3` (configuration not stated) [ISOGRAVACRIDONECHLORINE], the minimal inhibitory concentration (MIC) (in test [1]; against Bacillus subtilis) was 100 µg/mL (≈ 278 µM) each time.

For the compound `CC(O)CCCCc1ccc2c(c1)OCO2` (configuration not stated) [MOSKACHAN C], the MIC (in test [1]; against Bacillus subtilis) was 100 µg/mL (≈ 450 µM) in each case.

Take `COc1ccc2nc3occc3c(OC)c2c1` [PTELEINE]: the MIC (in test [1]; against Bacillus subtilis; with Staphylococcus aureus; in the test with Candida albicans) was 50 µg/mL (≈ 218 µM) each time.

Regarding `COc1ccc2c(OC)c3ccoc3nc2c1OC` [SKIMMIANINE], the MIC (in test [1]; against Bacillus subtilis) was 100 µg/mL (≈ 386 µM) throughout.
